From patent publication US11479802B2, “Assays for screening activity of modulators of members of the hydroxy steroid (17-beta) dehydrogenase (HSD17B) family” (Regeneron Pharmaceuticals, Inc., priority 2017, dated 2022)

Columns and labels:
HSD17B4 = molecular target: T1, HSD17B4 (Homo sapiens, UniProt P51659); assay: Steroid substrate panel against HSD17B family member B4; type: biochemical; settings: substrate at 50 μM; estradiol set as 100%
T1 construct: made in house
T1 sequence (P51659 1-736): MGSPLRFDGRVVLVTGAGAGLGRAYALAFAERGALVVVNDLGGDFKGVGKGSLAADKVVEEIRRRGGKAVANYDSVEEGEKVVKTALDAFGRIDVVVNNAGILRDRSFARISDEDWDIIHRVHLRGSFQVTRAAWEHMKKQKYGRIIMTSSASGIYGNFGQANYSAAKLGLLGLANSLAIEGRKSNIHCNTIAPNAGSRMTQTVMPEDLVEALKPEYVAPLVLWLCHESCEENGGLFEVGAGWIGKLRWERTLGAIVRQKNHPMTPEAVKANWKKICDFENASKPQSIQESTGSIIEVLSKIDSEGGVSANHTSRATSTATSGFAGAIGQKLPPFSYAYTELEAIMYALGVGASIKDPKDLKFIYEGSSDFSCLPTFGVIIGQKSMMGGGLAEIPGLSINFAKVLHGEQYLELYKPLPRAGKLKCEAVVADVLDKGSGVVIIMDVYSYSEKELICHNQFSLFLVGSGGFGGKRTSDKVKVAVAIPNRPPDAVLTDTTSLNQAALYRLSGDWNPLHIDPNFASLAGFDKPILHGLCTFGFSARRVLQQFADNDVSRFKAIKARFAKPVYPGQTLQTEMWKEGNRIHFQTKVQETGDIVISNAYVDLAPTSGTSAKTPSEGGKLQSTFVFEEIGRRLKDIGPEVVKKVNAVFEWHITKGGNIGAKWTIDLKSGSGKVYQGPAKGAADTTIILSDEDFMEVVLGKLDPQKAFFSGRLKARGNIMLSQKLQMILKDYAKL
Method: (§1) To understand the functional consequences of premature truncation of the HSD17B13 protein due to rs72613567:TA (the associated variant, rs72613567, is an insertion of an adenine adjacent to the donor splice site of exon six (TA allele)), the enzymatic activity of isoforms A and D was evaluated in vitro using recombinant protein and nicotinamide […] dinucleotide as cofactor. Reactions were performed in a final volume of 40 μl of assay buffer (0.2 M Tris-HCl, pH 7.5) which contained 500 μM NAD^+, 5 μM bioactive lipid or 50 μM steroid (all in a final concentration of 5% DMSO), and 100 ng of recombinant human HSD17B13. Reactions were incubated for 3 hours, at 23° C., after which an equal volume detection reagent was added. Following a 1 hour incubation at 23° C., the relative light units (RLUs) were measured on an Envision Plate Reader (Perkin Elmer). Raw RLU values were normalized as percent of control (50 μM estradiol) following subtraction of negative control (5% DMSO) using the following formula: Percent of control (POC)=100×(Sample (RLU)−Negative CTRLaverage)/(Positive CTRLaverage−Negative CTRLaverage).
(§2) In order to determine specificity of compounds with inhibitory activity against HSD17B13, assays for selected members of the HSD17B family which includes HSD17B1-HSD17B14 were established. As a first step, selected family members were expressed, purified and tested for activity a using a steroid substrate panel. Substrates from the steroid panel were tested at 50 μM, using the standard assay protocol. Activity against the substrates for each HSD17B family member were normalized to Percent of Control (POC). The control, estradiol, was set as 100%.

human HSD17B13 = molecular target: T2, human HSD17B13 (Homo sapiens, UniProt Q7Z5P4); assay: Substrate screening of steroid and bioactive lipid libraries against purified recombinant HSD17B13 (NADH-linked luciferase assay); type: biochemical; settings: for HSD17B13 Enzymatic Activity Percent Estradiol Control: normalized to 50 μM estradiol after subtraction of 5% DMSO; for HSD17B13 Enzymatic Activity Relative Light Units: 500 μM NAD+, 100 ng enzyme, 3 hours at 23° C.
T2 sequence (Q7Z5P4 20-300): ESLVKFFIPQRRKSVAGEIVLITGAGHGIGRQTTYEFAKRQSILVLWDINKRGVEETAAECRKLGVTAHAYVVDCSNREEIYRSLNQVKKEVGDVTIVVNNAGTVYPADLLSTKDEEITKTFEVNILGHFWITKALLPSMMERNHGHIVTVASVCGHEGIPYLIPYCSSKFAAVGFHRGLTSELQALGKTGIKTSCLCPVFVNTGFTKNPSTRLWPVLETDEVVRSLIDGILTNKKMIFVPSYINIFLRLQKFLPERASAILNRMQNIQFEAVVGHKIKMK
Summary of the method: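 Substrates (bioactive lipids 5 μM, steroids 50 μM; 5% DMSO) tested with 500 μM NAD+ and 100 ng recombinant human HSD17B13 in 0.2 M Tris-HCl pH 7.5, 3 h, 23° C. Luminescent NADH detection followed 1 h later; RLU normalized to estradiol (50 μM, 100%) and DMSO (0%) controls.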

HSD17B2 = molecular target: T3, HSD17B2 (Homo sapiens, UniProt P37059); assay: Steroid substrate panel against HSD17B family member B2; type: biochemical; settings: substrate at 50 μM; estradiol set as 100%
T3 construct: made in house
T3 sequence (P37059 1-387): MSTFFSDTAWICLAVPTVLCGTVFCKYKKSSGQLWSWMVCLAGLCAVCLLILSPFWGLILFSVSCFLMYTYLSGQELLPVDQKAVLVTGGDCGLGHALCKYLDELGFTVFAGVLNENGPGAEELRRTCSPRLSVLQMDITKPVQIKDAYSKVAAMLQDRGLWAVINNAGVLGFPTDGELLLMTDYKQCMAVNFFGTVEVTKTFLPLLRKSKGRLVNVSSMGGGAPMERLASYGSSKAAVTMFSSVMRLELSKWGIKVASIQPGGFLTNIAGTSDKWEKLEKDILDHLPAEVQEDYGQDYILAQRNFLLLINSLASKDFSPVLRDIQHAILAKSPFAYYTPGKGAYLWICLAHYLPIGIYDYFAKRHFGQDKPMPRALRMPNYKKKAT
Method: as §1, §2

HSD17B5 = molecular target: T4, HSD17B5 (Homo sapiens, UniProt P42330); assay: Steroid substrate panel against HSD17B family member B5; type: biochemical; settings: substrate at 50 μM; estradiol set as 100%
T4 construct: made in house
T4 sequence (P42330 1-323): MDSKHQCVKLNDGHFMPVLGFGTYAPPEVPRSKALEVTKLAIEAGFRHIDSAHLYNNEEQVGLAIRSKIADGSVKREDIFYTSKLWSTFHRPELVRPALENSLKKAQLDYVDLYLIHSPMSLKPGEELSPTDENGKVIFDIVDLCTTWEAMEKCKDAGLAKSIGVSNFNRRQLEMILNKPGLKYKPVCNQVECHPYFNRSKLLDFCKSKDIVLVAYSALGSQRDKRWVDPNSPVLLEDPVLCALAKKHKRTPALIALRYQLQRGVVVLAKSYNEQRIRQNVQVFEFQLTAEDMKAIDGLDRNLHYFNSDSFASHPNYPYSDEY
Method: as §1, §2

HSD17B1 = molecular target: T5, HSD17B1 (Homo sapiens, UniProt P14061); assay: Steroid substrate panel against HSD17B family member B1; type: biochemical; settings: substrate at 50 μM; estradiol set as 100%
T5 construct: made in house
T5 sequence (P14061 1-328): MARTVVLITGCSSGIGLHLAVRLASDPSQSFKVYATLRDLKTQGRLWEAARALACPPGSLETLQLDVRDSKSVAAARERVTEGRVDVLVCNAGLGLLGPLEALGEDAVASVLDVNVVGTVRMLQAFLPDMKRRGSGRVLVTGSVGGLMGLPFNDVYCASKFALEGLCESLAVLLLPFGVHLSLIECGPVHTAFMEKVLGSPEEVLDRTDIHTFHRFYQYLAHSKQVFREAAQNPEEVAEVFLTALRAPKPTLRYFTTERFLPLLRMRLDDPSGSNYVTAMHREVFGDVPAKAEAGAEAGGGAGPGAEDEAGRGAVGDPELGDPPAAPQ
Method: as §1, §2

HSD17B10 = molecular target: T6, HSD17B10 (Homo sapiens, UniProt Q99714); assay: Steroid substrate panel against HSD17B family member B10; type: biochemical; settings: substrate at 50 μM; estradiol set as 100%
T6 construct: made in house
T6 sequence (Q99714 1-261): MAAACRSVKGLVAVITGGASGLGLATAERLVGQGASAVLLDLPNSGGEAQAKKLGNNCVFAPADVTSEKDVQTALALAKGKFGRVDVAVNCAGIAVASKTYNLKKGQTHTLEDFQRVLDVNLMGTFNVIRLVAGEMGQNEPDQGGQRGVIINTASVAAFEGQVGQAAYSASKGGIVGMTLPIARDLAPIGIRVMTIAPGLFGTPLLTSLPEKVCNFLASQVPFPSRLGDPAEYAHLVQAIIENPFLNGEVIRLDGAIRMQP
Method: as §1, §2

HSD17B11 = molecular target: T7, HSD17B11 (Homo sapiens, UniProt Q8NBQ5); assay: Steroid substrate panel against HSD17B family member B11; type: biochemical; settings: substrate at 50 μM; estradiol set as 100%
T7 construct: made in house
T7 sequence (Q8NBQ5 20-300): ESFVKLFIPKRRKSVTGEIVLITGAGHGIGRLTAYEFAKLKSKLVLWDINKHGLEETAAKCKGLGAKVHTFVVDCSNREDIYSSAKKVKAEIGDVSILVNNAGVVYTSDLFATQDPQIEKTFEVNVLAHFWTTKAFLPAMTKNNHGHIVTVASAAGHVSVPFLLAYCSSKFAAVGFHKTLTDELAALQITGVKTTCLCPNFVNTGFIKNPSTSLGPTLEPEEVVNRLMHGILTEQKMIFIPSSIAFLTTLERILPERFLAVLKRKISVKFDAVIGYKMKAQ
Method: as §1, §2

[1] = molecular target: T8, recombinant HSD17B13 (E20-K300) (Homo sapiens, UniProt Q7Z5P4); assay: Biochemical NADH-linked screen of bioactive lipids as substrates (Example 2); settings: 5 μM substrate, 100 μM NAD+, four hours at room temperature
T8 construct: recombinant HSD17B13 (E20-K300)
T8 sequence (Q7Z5P4 20-300): T2 sequence (Q7Z5P4 20-300)
Method: The biochemical assay described in Example 1 was repeated using bioactive lipids as substrates. In brief, 5 μM of each substrate was incubated in 40 μL reactions containing 1 μg of recombinant HSD17B13 (E20-K300) or beta-2 microglobulin (as a negative control) and 100 μM NAD^+ in 0.2M Tris-HCl, pH 7.5. After four hours of incubation at room temperature, 10 μL of each reaction was mixed with 10 μL luciferase and read, after 40 minutes, on an Envision Plate Reader (Perkin Elmer).

SMILES	Percent of Control (POC), B4 (HSD17B4) [%]	HSD17B13 Enzymatic Activity Percent Estradiol Control (human HSD17B13; Bioactive Lipid Library, 5 μM bioactive lipid) [%]	HSD17B13 Enzymatic Activity Percent Estradiol Control (human HSD17B13; Steroid Library, 50 μM steroid) [%]	HSD17B13 Enzymatic Activity Percent Estradiol Control (human HSD17B13; Steroid Library, 50 μM steroid, listed as Beta-estradiol) [%]	HSD17B13 Enzymatic Activity Percent Estradiol Control (human HSD17B13; Steroid Library, 50 μM steroid, listed as Estradiol Control) [%]	Percent of Control (POC), B2 (HSD17B2) [%]	Percent of Control (POC), B5 (HSD17B5) [%]	Percent of Control (POC), B1 (HSD17B1) [%]	Percent of Control (POC), B10 (HSD17B10) [%]	Percent of Control (POC), B11 (HSD17B11) [%]	HSD17B13 Enzymatic Activity Relative Light Units (human HSD17B13; Steroid Library, 50 μM steroid) [RLU]	substrate for HSD17B13 [1]
C[C@]12CC[C@@H]3c4ccc(O)cc4CC[C@H]3[C@@H]1CC[C@@H]2O [Estradiol]	100	100.00	85.76	72.17	100.00	100	100	100	100	100		
CC1(C)[C@@H](O[C@H]2O[C@H](C(=O)O)[C@@H](O)[C@H](O)[C@H]2O[C@@H]2O[C@H](C(=O)O)[C@@H](O)[C@H](O)[C@H]2O)CC[C@]2(C)[C@H]3C(=O)C=C4[C@@H]5C[C@@](C)(C(=O)O)CC[C@]5(C)CC[C@@]4(C)[C@]3(C)CC[C@@H]12 [Glycyrrhizic acid]	0.7		0.05			0.0	0	−0.1	0.1	32.7	163600	
C[C@H](O)[C@@]1(O)CC[C@H]2[C@@H]3CC[C@@H]4C[C@H](O)CC[C@]4(C)[C@H]3CC[C@@]21C [Pregnanetriol]	0.4		0.06			6.1	48	−0.1	26.4	26.1	163920	
C[C@]12CC[C@H]3[C@@H](CCC4=CC(=O)CC[C@@]43C)[C@@H]1CC[C@@H]2O [Testosterone]	84.6		16.86			96.2	0	1.1	4.0	10.4	1125600	
C[C@]12CC[C@@H](O)C[C@H]1CC[C@@H]1[C@@H]2C(=O)C[C@@]2(C)[C@H]1CC[C@]2(O)C(=O)CO [TetrahydroCortisone]	0.5		1.25			1.0	104	0.0	52.2	0.0	232320	
CCCCCC[C@@H](O)C/C=C\CCCCCCCC(=O)O [ricinoleic acid]												identified as representative substrates
